In PubChem BioAssay AID248 (DTP/NCI, 2004):
Inconclusive results and toxic doses are left out. Cut-off read from the data, not from the text of the source: active = T/C of 150% or more; inactive = T/C below 125%.

Tested on: L1210 leukemia ip in BDF1 mice, survival T/C
Assay: NCI In Vivo Anticancer Drug Screen. Data for tumor model L1210 Leukemia (intraperitoneal) in B6D2F1 (BDF1) mice
Conditions: endpoint: mean survival time, higher = longer survival
Procedure, shortened: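 Ratio derived from survival: compound-dosed mice over vehicle-dosed mice, all bearing a transplantable tumor.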

[1] = dose: 100.0 mg/kg/injection, schedule: Q04DX003 (ip), vehicle: Klucel (hydroxypropylcellulose) (HPC)
[2] = dose: 200.0 mg/kg/injection, schedule: Q04DX003 (ip), vehicle: Klucel (hydroxypropylcellulose) (HPC)
[3] = dose: 100.0 mg/kg/injection, schedule: Q01DX009 (ip), vehicle: Klucel (hydroxypropylcellulose) (HPC)
[4] = dose: 200.0 mg/kg/injection, schedule: Q01DX009 (ip), vehicle: Klucel (hydroxypropylcellulose) (HPC)
[5] = dose: 50.0 mg/kg/injection, schedule: Q01DX001 (ip), vehicle: carboxymethylcellulose (CMC)
[6] = dose: 100.0 mg/kg/injection, schedule: Q01DX001 (ip), vehicle: carboxymethylcellulose (CMC)
[7] = dose: 200.0 mg/kg/injection, schedule: Q01DX001 (ip), vehicle: carboxymethylcellulose (CMC)
[8] = dose: 400.0 mg/kg/injection, schedule: Q01DX001 (ip), vehicle: carboxymethylcellulose (CMC)
[9] = dose: 100.0 mg/kg/injection, schedule: Q01DX009 (ip), vehicle: saline
[10] = dose: 200.0 mg/kg/injection, schedule: Q01DX009 (ip), vehicle: saline
[11] = dose: 400.0 mg/kg/injection, schedule: Q01DX009 (ip), vehicle: saline
[12] = dose: 400.0 mg/kg/injection, schedule: Q04DX003 (ip), vehicle: Klucel (hydroxypropylcellulose) (HPC)
[13] = dose: 100.0 mg/kg/injection, schedule: Q04DX003 (ip), vehicle: saline with Tween-80
[14] = dose: 200.0 mg/kg/injection, schedule: Q04DX003 (ip), vehicle: saline with Tween-80

Measured: T/C

O=C(NCCc1ccccc1)c1ccc2ccccc2n1
inactive: dose: 3.12 mg/kg/injection, schedule: Q01DX009 (ip), vehicle: DMSO 93 % of control | dose: 6.25 mg/kg/injection, schedule: Q01DX009 (ip), vehicle: DMSO 93 % of control | dose: 12.5 mg/kg/injection, schedule: Q01DX009 (ip), vehicle: DMSO 91 % of control | dose: 25.0 mg/kg/injection, schedule: Q01DX009 (ip), vehicle: DMSO 90 % of control | dose: 100.0 mg/kg/injection, schedule: Q04DX003 (ip), vehicle: DMSO 95 % of control | dose: 200.0 mg/kg/injection, schedule: Q04DX003 (ip), vehicle: DMSO 97 % of control | dose: 400.0 mg/kg/injection, schedule: Q04DX003 (ip), vehicle: DMSO 95 % of control

CNc1c(C)cccc1C
inactive: dose: 50.0 mg/kg/injection, schedule: Q04DX003 (ip), vehicle: Klucel (hydroxypropylcellulose) (HPC) 105 % of control | dose: 100.0 mg/kg/injection, schedule: Q01DX001 (ip), vehicle: Klucel (hydroxypropylcellulose) (HPC) 104 % of control | [1] 94 % of control | dose: 200.0 mg/kg/injection, schedule: Q01DX001 (ip), vehicle: Klucel (hydroxypropylcellulose) (HPC) 102 % of control | [2] 101 % of control | dose: 400.0 mg/kg/injection, schedule: Q01DX001 (ip), vehicle: Klucel (hydroxypropylcellulose) (HPC) 107 % of control

CC1=N/C(=C/c2ccccc2Cl)C(=O)O1
inactive: dose: 50.0 mg/kg/injection, schedule: Q01DX009 (ip), vehicle: Klucel (hydroxypropylcellulose) (HPC) 93 % of control | [3] 90 % of control | [1] 95 % of control | [4] 93 % of control | [2] 98 % of control

O=[N+]([O-])c1cccc(/C=N/Nc2nnc(N/N=C/c3cccc([N+](=O)[O-])c3)c3ccccc23)c1
inactive: [5] 98 % of control | [6] 98 % of control | [7] 87 % of control | [8] 93 % of control

COC(=O)C(N)Cc1ccc(O)c(O)c1 (stereo not given)
inactive: [9] 110 % of control | dose: 100.0 mg/kg/injection, schedule: Q04DX003 (ip), vehicle: saline 102 % of control | [10] 112 % of control | dose: 200.0 mg/kg/injection, schedule: Q04DX003 (ip), vehicle: saline 98 % of control | [11] 112 % of control | dose: 400.0 mg/kg/injection, schedule: Q04DX003 (ip), vehicle: saline 102 % of control

COc1c(Cl)cc(Cl)cc1Cl
inactive: dose: 100.0 mg/kg/injection, schedule: Q01DX009 (ip), vehicle: saline sonified 96 % of control | [1] 101 % of control | dose: 200.0 mg/kg/injection, schedule: Q01DX009 (ip), vehicle: saline sonified 107 % of control | [2] 98 % of control | dose: 400.0 mg/kg/injection, schedule: Q01DX009 (ip), vehicle: saline sonified 97 % of control | [12] 104 % of control

CN(C)CCC/C=N/Nc1ccc(Cl)cc1[N+](=O)[O-]
inactive: [13] 96 % of control | [14] 91 % of control

Nc1cc2c(cc1Cl)-c1ccccc1/C2=N\O
inactive: [6] 110 % of control | [7] 98 % of control | [8] 102 % of control

CCCCCCCCCCCCCCCCn1/c(=N/N=C/c2ccccc2S(=O)(=O)O)sc2ccccc21
inactive: [3] 106 % of control | [1] 113 % of control | [4] 112 % of control | [2] 106 % of control | dose: 400.0 mg/kg/injection, schedule: Q01DX009 (ip), vehicle: Klucel (hydroxypropylcellulose) (HPC) 105 % of control | [12] 116 % of control

COC(=O)C(C)(OC)OC
inactive: [9] 104 % of control | [1] 96 % of control | [10] 112 % of control | [2] 100 % of control | [11] 105 % of control | [12] 96 % of control

CC(=O)CCC(C(C)=O)C(C)=O
inactive: dose: 100.0 mg/kg/injection, schedule: Q01DX001 (ip), vehicle: saline 106 % of control | dose: 200.0 mg/kg/injection, schedule: Q01DX001 (ip), vehicle: saline 106 % of control | dose: 400.0 mg/kg/injection, schedule: Q01DX001 (ip), vehicle: saline 103 % of control

CC1(C)OCC(COCc2ccccc2)O1 (stereo not given)
inactive: [13] 96 % of control | [14] 104 % of control | dose: 400.0 mg/kg/injection, schedule: Q04DX003 (ip), vehicle: saline with Tween-80 95 % of control

CN(C)Cc1ccccc1COC(=O)c1ccc([N+](=O)[O-])cc1
inactive: dose: 75.0 mg/kg/injection, schedule: Q04DX002 (ip), vehicle: Klucel (hydroxypropylcellulose) (HPC) 97 % of control | dose: 150.0 mg/kg/injection, schedule: Q04DX002 (ip), vehicle: Klucel (hydroxypropylcellulose) (HPC) 105 % of control | dose: 300.0 mg/kg/injection, schedule: Q04DX002 (ip), vehicle: Klucel (hydroxypropylcellulose) (HPC) 97 % of control

CC(C#N)C(N)=O (stereo not given)
inactive: dose: 12.5 mg/kg/injection, schedule: Q04DX003 (ip), vehicle: saline 97 % of control | dose: 25.0 mg/kg/injection, schedule: Q04DX003 (ip), vehicle: saline 94 % of control | dose: 50.0 mg/kg/injection, schedule: Q04DX003 (ip), vehicle: saline 105 % of control

OCCN1CCC2(CC1)SSC1(CCN(CCO)CC1)S2
inactive: dose: 50.0 mg/kg/injection, schedule: Q01DX009 (ip), vehicle: saline with Tween-80 104 % of control | dose: 100.0 mg/kg/injection, schedule: Q01DX009 (ip), vehicle: saline with Tween-80 98 % of control | [13] 100 % of control | dose: 200.0 mg/kg/injection, schedule: Q01DX009 (ip), vehicle: saline with Tween-80 93 % of control | [14] 104 % of control

CCN(CC)Cc1cc(N)ccc1O
inactive: [9] 106 % of control | [10] 89 % of control

Cc1c2c(cc3c1OCN(Cc1ccccc1)C3)CN(Cc1ccccc1)CO2
inactive: [5] 105 % of control | [6] 94 % of control | [7] 89 % of control | [8] 91 % of control

O=[N+]([O-])c1ccc(O)c(CCl)c1
inactive: dose: 50.0 mg/kg/injection, schedule: Q04DX002 (ip), vehicle: saline with Tween-80 109 % of control | dose: 100.0 mg/kg/injection, schedule: Q04DX002 (ip), vehicle: DMSO 107 % of control | dose: 100.0 mg/kg/injection, schedule: Q04DX002 (ip), vehicle: saline with Tween-80 109 % of control | dose: 200.0 mg/kg/injection, schedule: Q04DX002 (ip), vehicle: DMSO 86 % of control | dose: 200.0 mg/kg/injection, schedule: Q04DX002 (ip), vehicle: saline with Tween-80 98 % of control | dose: 400.0 mg/kg/injection, schedule: Q04DX002 (ip), vehicle: saline with Tween-80 104 % of control
